These results are taken from US12552770B2, “Compounds for treating respiratory disease” (TMEM16A Limited, priority 2020, dated 2026).

This test addresses T1, human TMEM16A (TMEM16Aabc variant) (Homo sapiens, UniProt Q5XXA6, DEL476-501).
T1 sequence (Q5XXA6 with tags, fused parts or gaps isoform Q5XXA6-5 DEL539-564): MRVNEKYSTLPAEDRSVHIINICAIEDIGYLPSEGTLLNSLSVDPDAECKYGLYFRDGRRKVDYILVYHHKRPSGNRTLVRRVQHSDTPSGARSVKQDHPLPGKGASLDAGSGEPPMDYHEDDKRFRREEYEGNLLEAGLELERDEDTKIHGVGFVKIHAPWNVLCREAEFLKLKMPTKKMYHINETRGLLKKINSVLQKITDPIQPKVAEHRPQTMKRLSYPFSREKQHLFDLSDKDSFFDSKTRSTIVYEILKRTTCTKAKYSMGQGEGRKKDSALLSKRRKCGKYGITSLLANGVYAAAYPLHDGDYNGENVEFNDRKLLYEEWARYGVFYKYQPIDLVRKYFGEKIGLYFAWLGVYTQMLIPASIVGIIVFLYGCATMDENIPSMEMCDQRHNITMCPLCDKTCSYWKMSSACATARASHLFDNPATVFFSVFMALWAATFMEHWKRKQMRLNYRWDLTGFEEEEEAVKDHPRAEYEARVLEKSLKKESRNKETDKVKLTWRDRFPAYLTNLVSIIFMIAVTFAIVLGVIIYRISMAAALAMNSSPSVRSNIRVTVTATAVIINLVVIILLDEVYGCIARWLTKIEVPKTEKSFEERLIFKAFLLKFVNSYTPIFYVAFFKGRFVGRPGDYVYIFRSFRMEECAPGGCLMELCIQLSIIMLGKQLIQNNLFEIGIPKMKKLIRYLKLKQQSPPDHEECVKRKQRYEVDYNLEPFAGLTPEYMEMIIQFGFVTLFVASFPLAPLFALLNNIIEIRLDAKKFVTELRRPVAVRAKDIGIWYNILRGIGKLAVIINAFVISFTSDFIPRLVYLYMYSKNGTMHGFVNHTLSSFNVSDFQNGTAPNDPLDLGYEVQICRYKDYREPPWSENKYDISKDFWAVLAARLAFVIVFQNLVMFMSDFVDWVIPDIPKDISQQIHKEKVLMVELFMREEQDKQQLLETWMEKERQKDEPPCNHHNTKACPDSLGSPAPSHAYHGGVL
The test is described as follows: Automated whole-cell patch clamp (Qpatch) TMEM16A potentiator assay in recombinant cells. The test is classed as cell-based. Conditions: FRT cells stably expressing human TMEM16A, intracellular calcium at EC20; for % Potentiation @ 3.33 μM Avg: 3.33 μM solution of test compound, percentage increase of baseline TMEM16A current, peak current at +70 mV; for EC50: calculated from cumulative concentration response curve, whole-cell patch clamp. On the procedure: Automated Whole-Cell Patch Clamp Assay to Detect TMEM16A Activity in Recombinant Cells
Cell Culture and Preparation
Fisher rat thyroid (FRT) cells stably expressing human TMEM16A (TMEM16Aabc variant; Dr Luis Galietta, Insituto Giannina, Italy) were cultured in T-75 flasks in Hams F-12 media with Coon's modification (Sigma) supplemented with 10% (v/v) foetal bovine serum, penicillin-streptomycin (10,000 U/mL/10000 μg/mL), G-418 (750 μg/mL), L-glutamine (2 mM) and sodium bicarbonate solution (7.5% v/v). At ˜90% confluence cells were harvested for experiments by detachment with a 2:1 (v/v) mixture of Detachin (BMS Biotechnology) and 0.25% (w/v) trypsin-EDTA. Cells were diluted to a density of 3.5-4.5×10^6 cells/mL with media consisting of CHO-S-SFM II (Sigma), 25 mM HEPES (Sigma) and Soy bean trypsin inhibitor (Sigma).
Whole-Cell Patch Clamp Recording
FRT-TMEM16A cells were whole-cell patch clamped using an automated planar patch clamp system (Qpatch, Sophion). Briefly, once high resistance (GOhm) seals were established between the cells and the planar recording array the patch was ruptured using suction pulses to establish the whole-cell recording configuration of the patch clamp technique. The assay employed the following solutions (all reagents Sigma):
Intracellular solution (mM): N-methyl-D-glucamine 130, CaCl2 18.2, MgCl2 1, HEPES 10, EGTA 10, BAPTA 20, Mg-ATP 2, pH 7.25, 325 mOsm with sucrose.
Extracellular solution (mM): N-methyl-D-glucamine 130, CaCl2 2, MgCl2 1, HEPES 10, pH 7.3, 320 mOsm with sucrose.
The intracellular solution buffers intracellular calcium at levels required to give ˜20% activation of the maximal TMEM16A mediated current (EC20 for calcium ions). Cells were voltage clamped at a holding potential of −70 mV and a combined voltage step (to +70 mV)/ramp (−90 my to +90 mV) was applied at 0.05 Hz. After a period of current stabilisation test compounds, solubilised in 100% (v/v) DMSO and subsequently diluted into extracellular solution, were applied to generate a cumulative concentration response curve. Each concentration of test compound was incubated for 5 minutes before addition of the next concentration. After the final concentration was tested a supramaximal concentration of either a known active positive modulator or the TMEM16A inhibitor, CaCCinhA01 (Del La Fuente et al, 2008) was added to define the upper and lower limits of the assay.
Compound activity was quantified by measuring the increase in current upon compound addition and expressing this as a percentage increase of baseline TMEM16A current level. Percentage increases in current were determined for each concentration and the data plotted as a function of concentration using either the Qpatch software or Graphpad Prism v6.05 providing the concentration which gave 50% of its maximal effect (EC50) and maximum efficacy (percentage of baseline increase).
In FIG. 1, IBL equals baseline current, I[#1] equals the peak current during test compound concentration 1 incubation period and so on.
Peak TMEM16A current at +70 mV was plotted as a function of time over the assay period. Baseline current (IBL) was measured after a period of stabilisation. The increase in current for each compound addition was determined by taking the peak current during the incubation period and subtracting the current from the previous recording period and then expressing this as a percentage of the baseline current. For test compound concentration 1 in FIG. 1 this is:
For each additional concentration tested the increase in current was determined by subtracting the current from the previous incubation period and normalising the baseline value—for test concentration 2 in FIG. 1 this is:
The values for each test concentration were plotted as a cumulative function of concentration e.g. for test concentration two this would be the sum of the peak changes measured during concentration one plus concentration two.

Regarding `O=C(CC12CC3CC(CC(C3)C1)C2)Nc1cc2nc(Cc3ccccc3)[nH]c2cn1` [Example 14, 2-(1-Adamantyl)-N-(2-benzyl-3H-imidazo[4,5-c]pyridin-6-yl)acetamide], the “% Potentiation @ 3.33 μM Avg” value came out at 59.4%. As to `O=C(NCC1CCCCCC1)c1ccn2cc(Cc3ccccc3)nc2c1` [Example 15, 2-Benzyl-N-(cycloheptylmethyl)imidazo[1,2-a]pyridine-7-carboxamide], the “% Potentiation @ 3.33 μM Avg” value amounted to 58.6% and the EC50 – broadly, the concentration at which the effect is half-maximal – was 1060 nM.

Turning to `O=C(CC12CC3CC(CC(C3)C1)C2)Nc1ccc2cn(Cc3ccccc3)nc2c1` [Example 16, 2-(1-Adamantyl)-N-(2-benzylindazol-6-yl)acetamide], the “% Potentiation @ 3.33 μM Avg” value turned out to be 137.3% and the EC50 is 502 nM. Regarding `Cc1c2ccc(NC(=O)CC34CC5CC(CC(C5)C3)C4)cc2nn1Cc1ccccc1` [Example 17, 2-(1-Adamantyl)-N-(2-benzyl-3-methyl-indazol-6-yl)acetamide], the “% Potentiation @ 3.33 μM Avg” value amounted to 118.3% and the EC50 is 918 nM. In the same order, the values of `CC(C)(C)c1nc2cc(NC(=O)Cc3cc(Cl)ccc3O)ccc2[nH]1` [Example 18, N-(2-tert-Butyl-1H-benzimidazol-5-yl)-2-(5-chloro-2-hydroxy-phenyl)acetamide] are 95.9% and 156 nM.

`CC(C)(CNC(=O)OC(C)(C)C)CNC(=O)c1ccc2[nH]c(Cc3ccccc3)nc2c1` [Example 19, tert-Butyl N-[3-[(2-benzyl-1H-benzimidazole-5-carbonyl)amino]-2,2-dimethyl-propyl]carbamate]: the “% Potentiation @ 3.33 μM Avg” value stood at 181.6% and the EC50 was 936 nM. `CC(C)(C)c1nc2ccc(C(=O)NCC3CCCCCC3)cc2[nH]1` [Example 20, 2-tert-Butyl-N-(cycloheptylmethyl)-3H-benzimidazole-5-carboxamide]: the “% Potentiation @ 3.33 μM Avg” value was determined as 85.9% and the EC50 is 776 nM. For `CC(C)(C)c1cc(F)c(Cc2nc3cc(C(=O)NC4(C(F)(F)F)CC4)ccc3[nH]2)cc1O` [Example 21, 2-[(4-tert-Butyl-2-fluoro-5-hydroxy-phenyl)methyl]-N-[1-(trifluoromethyl)cyclopropyl]-1H-benzimidazole-5-carboxamide] the same measures were 262% and 99 nM.

`CC(C)(C)c1cc(F)c(Cc2nc3cc(C(=O)NCC4(C(F)(F)F)CC4)ccc3[nH]2)cc1O` [Example 21.1, 2-[(4-tert-Butyl-2-fluoro-5-hydroxy-phenyl)methyl]-N-[[1-(trifluoromethyl)cyclopropyl]methyl]-1H-benzimidazole-5-carboxamide]: the “% Potentiation @ 3.33 μM Avg” value stood at 275% and the half-maximal effective concentration (EC50) was 227 nM.

For the compound `CC(C)(C)c1cc(F)c(Cc2nc3cc(C(=O)NCCC(F)(F)F)ccc3[nH]2)cc1O` [Example 21.2, 2-[(4-tert-Butyl-2-fluoro-5-hydroxy-phenyl)methyl]-N-(3,3,3-trifluoropropyl)-1H-benzimidazole-5-carboxamide], the “% Potentiation @ 3.33 μM Avg” value was 272% and the EC50 was 150 nM.

Take `CC(C)(O)c1cc(F)c(CC(=O)Nc2ccc3[nH]c(C4(C(F)(F)F)CC4)nc3c2)cc1O` [Example 22, 2-[2-Fluoro-5-hydroxy-4-(1-hydroxy-1-methyl-ethyl)phenyl]-N-[2-[1-(trifluoromethyl)cyclopropyl]-1H-benzimidazol-5-yl]acetamide]: the “% Potentiation @ 3.33 μM Avg” value was 149% and the EC50 was 168 nM. In the same order, the values of `CC(C)(C)c1cc(F)c(CC(=O)Nc2ccc3[nH]c(C4(C(F)(F)F)CC4)nc3c2)cc1O` [Example 23, 2-(4-tert-Butyl-2-fluoro-5-hydroxy-phenyl)-N-[2-[1-(trifluoromethyl)cyclopropyl]-1H-benzimidazol-5-yl]acetamide] are 153% and 52 nM. In the same order, the values of `O=C(NCCC(F)(F)F)c1ccc2[nH]c(Cc3ccccc3)nc2c1` [Example 24, 2-Benzyl-N-(3,3,3-trifluoropropyl)-1H-benzimidazole-5-carboxamide] are 69% and 1100 nM. In the same order, the values of `O=C(NCC1CCCC1)c1ccc2[nH]c(Cc3ccccc3)nc2c1` [Example 24.1, 2-Benzyl-N-(cyclopentylmethyl)-1H-benzimidazole-5-carboxamide] are 106% and 176 nM. Turning to `O=C(NCC1CCCCCC1)c1ccc2[nH]c(Cc3ccccc3)nc2c1` [Example 24.2, 2-Benzyl-N-(cycloheptylmethyl)-1H-benzimidazole-5-carboxamide], the “% Potentiation @ 3.33 μM Avg” value came to 137% and the EC50 was 120 nM. For `O=C(NCC1CCCCCC1)c1ccc2[nH]c(Cc3c(O)cccc3F)nc2c1` [Example 25, N-(Cycloheptylmethyl)-2-[(2-fluoro-6-hydroxy-phenyl)methyl]-1H-benzimidazole-5-carboxamide] the same measures were 57% and 36 nM. As to `O=C(NCC1CCCCCC1)c1ccc2[nH]c(Cc3cc(F)ccc3O)nc2c1` [Example 25.1, N-(Cycloheptylmethyl)-2-[(5-fluoro-2-hydroxy-phenyl)methyl]-1H-benzimidazole-5-carboxamide], the “% Potentiation @ 3.33 μM Avg” value is given as 142% and the EC50 was 76 nM. With `O=C(NCC1CCCCCC1)c1ccc2[nH]c(Cc3cccc(F)c3O)nc2c1` [Example 25.2, N-(Cycloheptylmethyl)-2-[(3-fluoro-2-hydroxy-phenyl)methyl]-1H-benzimidazole-5-carboxamide], the “% Potentiation @ 3.33 μM Avg” value is recorded as 83% and the EC50 was 200 nM. In the case of `O=C(NCC1CCCCCC1)c1ccc2[nH]c(Cc3ccccc3O)nc2c1` [Example 25.3, N-(Cycloheptylmethyl)-2-[(2-hydroxyphenyl)methyl]-1H-benzimidazole-5-carboxamide], the “% Potentiation @ 3.33 μM Avg” value amounted to 104% and the half-maximal effective concentration (EC50) is 76 nM.
